# Data: ChEMBL document CHEMBL4680243, “N-benzyl 4,4-disubstituted piperidines as a potent class of influenza H1N1 virus inhibitors showing a novel mechanism of hemagglutinin fusion peptide interaction” (Eur J Med Chem, 2020)
# How the values were obtained:
# Influenza A virus [1] = assay: Antiviral activity against Influenza A virus (A/PR 8/34 (H1N1)) infected in MDCK cells assessed as reduction in virus-induced cytopathic effect measured after 72 hrs by MTS assay; type: functional, organism-based; details: A/Puerto Rico/8/1934(H1N1)
# [2] = Cytotoxicity against MDCK cells assessed as change in cell morphology measured after 72 hrs by microscopic analysis; type: cell-based, Canis lupus familiaris; details: dog
# Influenza A virus [3] = assay: Antiviral activity against Influenza A virus (A/PR 8/34 (H1N1)) infected in MDCK cells assessed as reduction in virus-induced cytopathic effect measured after 72 hrs by microscopic analysis; type: functional, organism-based; details: A/Puerto Rico/8/1934(H1N1)
# [4] = Cytotoxicity against MDCK cells assessed as reduction in cell viability measured after 72 hrs by MTS assay; type: cell-based, Canis lupus familiaris; details: dog
# [5] = Selectivity index, ratio of CC50 for MDCK cells to EC50 for antiviral activity against Influenza A virus (A/Puerto Rico/8/1934(H1N1)) infected in MDCK cells; type: toxicity, cell-based; details: dog, read-out: Ratio CC50/EC50
SMILES,EC50 (Influenza A virus [1]) [µM],MCC at 72 h [2] [µM],EC50 (Influenza A virus [3]) [µM],CC50 at 72 h [4] [µM],selectivity ratio [5]
C[C@H](NC(=O)OC(C)(C)C)C(=O)N(Cc1ccc(F)cc1)C1(C(=O)NCc2ccccc2)CCN(Cc2ccccc2)CC1,11,> 100,10,> 100,
COC(=O)C[C@H](NC(=O)OC(C)(C)C)C(=O)N(Cc1ccc(F)cc1)C1(C(=O)NCc2ccccc2)CC[N+](C)(Cc2ccccc2)CC1 (stereo partly drawn),> 100,100,> 100,55,
COC(=O)C[C@H](NC(=O)OC(C)(C)C)C(=O)N(Cc1ccc(F)cc1)C(C)(C)C(=O)NCc1ccccc1,> 100,20,> 100,10,
COC(=O)C[C@H](NC(=O)OC(C)(C)C)C(=O)N(Cc1ccc(F)cc1)C1(C(=O)NCS(=O)(=O)c2ccc(C)cc2)CCN(Cc2ccccc2)CC1,> 100,4,> 100,6.4,
CC(C)(C)OC(=O)N[C@@H](Cc1ccccc1)C(=O)N(Cc1ccc(F)cc1)C1(C(=O)NCc2ccccc2)CCN(Cc2ccccc2)CC1,> 100,100,> 100,56,
COC(=O)C[C@H](NC(=O)OC(C)(C)C)C(=O)N(Cc1ccc(Cl)cc1)C1(C(=O)NCc2ccccc2)CCN(Cc2ccccc2)CC1,1.6,100,1.6,63,≤ 10
CC(C)(C)OC(=O)N[C@@H](CC(N)=O)C(=O)N(Cc1ccccc1)C1(C(=O)NCc2ccccc2)CCN(Cc2ccccc2)CC1,6.7,> 100,6.3,> 100,≤ 10
COC(=O)C[C@H](NC(=O)OC(C)(C)C)C(=O)N(Cc1ccc(F)cc1)C1(C(=O)NCc2ccccc2)CCN(CCc2ccccc2)CC1,> 100,100,> 100,41,
COC(=O)C[C@H](NC(=O)OC(C)(C)C)C(=O)N(CCNc1ccccc1)C1(C(=O)NCc2ccccc2)CCN(Cc2ccccc2)CC1,> 100,14,> 100,68,
COC(=O)C[C@H](NC(=O)OC(C)(C)C)C(=O)N(C1CC1)C1(C(=O)NCc2ccccc2)CCN(Cc2ccccc2)CC1,> 100,84,> 100,56,
COC(=O)C[C@H](N)C(=O)N(Cc1ccc(F)cc1)C1(C(=O)NCc2ccccc2)CCN(Cc2ccccc2)CC1,< 0.8,60,< 0.8,54,
COC(=O)C[C@H](NC(=O)OC(C)(C)C)C(=O)N(Cc1ccc(C)cc1)C1(C(=O)NCc2ccccc2)CCN(Cc2ccccc2)CC1,> 100,> 100,6.9,> 100,
COC(=O)C[C@H](NC(=O)OC(C)(C)C)C(=O)N(Cc1cccc(F)c1)C1(C(=O)NCc2ccccc2)CCN(Cc2ccccc2)CC1,5.2,47,4.1,75,≤ 10
COC(=O)C[C@H](NC(=O)OC(C)(C)C)C(=O)N(C)C1(C(=O)NCc2ccccc2)CCN(Cc2ccccc2)CC1,> 100,20,14,25,
COC(=O)C[C@H](NC(=O)OC(C)(C)C)C(=O)N(Cc1ccc(F)cc1)C1(C(=O)NCc2ccccc2)CCN(c2ccccc2)CC1,> 100,20,> 100,8.2,
COC(=O)C[C@H](NC(=O)OC(C)(C)C)C(=O)N(Cc1ccc(C(F)(F)F)cc1)C1(C(=O)NCc2ccccc2)CCN(Cc2ccccc2)CC1,> 100,84,> 100,54,
CC(C)(C)NC(=O)C1(N(C(=O)[C@H](Cc2ccccc2)NC(=O)OC(C)(C)C)C2CC2)CCN(Cc2ccccc2)CC1,5.3,84,5.8,58,≤ 10
CC[C@H](C)[C@H](NC(=O)OCc1ccccc1)C(=O)N(C1CC1)C1(C(=O)NCc2ccccc2)CCN(Cc2ccccc2)CC1,9,> 100,5.1,> 100,8

SMILES,EC50 (Influenza A virus [1]) [µM],MCC at 72 h [2] [µM],EC50 (Influenza A virus [3]) [µM],CC50 at 72 h [4] [µM],selectivity ratio [5]
COC(=O)C[C@H](NC(=O)OC(C)(C)C)C(=O)N(Cc1ccccc1)C1(C(=O)NCc2ccccc2)CCN(Cc2ccccc2)CC1,10,> 100,9.3,> 100,≤ 10
COC(=O)CC[C@H](NC(=O)OC(C)(C)C)C(=O)N(Cc1ccc(F)cc1)C1(C(=O)NCc2ccccc2)CCN(Cc2ccccc2)CC1,10,> 100,9.8,> 100,≤ 10
COC(=O)C[C@H](NC(=O)OC(C)(C)C)C(=O)N(Cc1ccc(F)cc1)C1(C(=O)NC(C)(C)C)CCN(Cc2ccccc2)CC1,> 100,80,> 100,50,
COC(=O)C[C@H](NC(=O)OC(C)(C)C)C(=O)N(Cc1ccc(F)cc1)C1(C(=O)NCc2ccccc2)CCN(C)CC1,36,17,36,9.5,
COC(=O)C[C@H](NC(=O)OCc1ccccc1)C(=O)N(Cc1ccc(F)cc1)C1(C(=O)NCc2ccccc2)CCN(Cc2ccccc2)CC1,> 100,2.6,2.7,1.9,
COC(=O)C[C@H](NC(=O)OC(C)(C)C)C(=O)N(Cc1ccc(F)cc1)C1(C(=O)NC2CCCCC2)CCN(Cc2ccccc2)CC1,> 100,100,> 100,44,
CC[C@H](C)[C@H](NC(=O)OC(C)(C)C)C(=O)N(Cc1ccccc1)C1(C(=O)NCc2ccccc2)CCN(Cc2ccccc2)CC1,> 100,> 100,> 100,> 100,
COC(=O)CCC(=O)N(Cc1ccc(F)cc1)C1(C(=O)NCc2ccccc2)CCN(Cc2ccccc2)CC1,24,16,25,40,
COC(=O)C[C@H](NC(=O)OC(C)(C)C)C(=O)N(Cc1ccc(F)cc1)C1(C(=O)NCc2ccccc2)CCN(Cc2cccc(F)c2)CC1,1.6,84,1.6,73,
COC(=O)C[C@H](NC(=O)OC(C)(C)C)C(=O)N(Cc1ccccc1F)C1(C(=O)NCc2ccccc2)CCN(Cc2ccccc2)CC1,8.7,20,9.3,72,≤ 10
CC[C@H](C)[C@H](NC(=O)OCc1ccccc1)C(=O)N(C1CC1)C1(C(=O)NC(C)(C)C)CCN(Cc2ccccc2)CC1,3.9,100,4.3,59,13
COC(=O)C[C@H](NC(=O)OC(C)(C)C)C(=O)N(Cc1ccc(F)cc1)C1(C(=O)NCc2ccccc2)CCN(Cc2cc(F)cc(F)c2)CC1,> 100,100,> 100,84,
COC(=O)C[C@H](NC(=O)OC(C)(C)C)C(=O)N(Cc1ccc([N+](=O)[O-])cc1)C1(C(=O)NCc2ccccc2)CCN(Cc2ccccc2)CC1,> 100,20,10,> 100,
COC(=O)C[C@H](NC(=O)OC(C)(C)C)C(=O)N(Cc1ccc(F)cc1)C1(C(=O)NCc2ccccc2)CCNCC1,> 89,100,> 73,48,
COC(=O)C[C@H](NC(=O)OC(C)(C)C)C(=O)N(Cc1ccc(F)c(F)c1)C1(C(=O)NCc2ccccc2)CCN(Cc2ccccc2)CC1,> 100,20,> 100,52,
CCC(C)N(C(=O)[C@H](CC(=O)OC)NC(=O)OC(C)(C)C)C1(C(=O)NCc2ccccc2)CCN(Cc2ccccc2)CC1 (stereo partly drawn),> 100,84,> 100,53,
COC(=O)C[C@H](NC(=O)OC(C)(C)C)C(=O)NC1(C(=O)NCc2ccccc2)CCN(Cc2ccccc2)CC1,> 100,100,> 100,85,
COC(=O)C[C@H](NC(=O)OC(C)(C)C)C(=O)N(Cc1ccc(F)cc1)C1(C(=O)NCc2ccccc2)CCN(C2CCCCC2)CC1,> 100,73,> 100,42,
